From patent publication US11590167B2, “Methods and compositions for use of therapeutic T cells in combination with kinase inhibitors” (Juno Therapeutics, Inc., priority 2016, dated 2023) come the findings set out here.

For test [1], the system named is anti-CD19 CAR T cells. Nature of the test: Cytolytic activity of anti-CD19 CAR T cells co-cultured with K562-CD19 target cells (IncuCyte). The following applies: E:T 2.5:1, four days, three healthy donors; ibrutinib 0.5-5000 nM; compound of Formula (II) 50 to 5000 nM. Type of test: cell-based, human. The text has this:
(§1) To generate CAR-expressing T cells, T cells were isolated by immunoaffinity-based enrichment from three healthy human donor subjects, and cells from each donor were activated and transduced with a viral vector encoding an anti-CD19 CAR. The CAR contained an anti-CD19 scFv, an Ig-derived spacer, a human CD28-derived transmembrane domain, a human 4-1BB-derived intracellular signaling domain and a human CD3 zeta-derived signaling domain. The nucleic acid construct encoding the CAR also included a truncated EGFR (tEGFR) sequence for use as a transduction marker, separated from the CAR sequence by a self-cleaving T2A sequence.
(§2) CAR-expressing CD4+ and CD8+ cells were mixed 1:1 for each donor, individually, and the pooled cells for each donor assessed in vitro under various conditions.
CAR T cells generated as described above were plated in triplicate on Poly-D-Lysine plates and then co-cultured with ibrutinib-resistant, CD19-expressing target cells (K562 cells transduced to express CD19, K562-CD19) at an effector to target (E:T) ratio of 2.5:1. The targets cells were labeled with NucLight Red (NLR) to permit tracking of target cells by microscopy. […] Cytolytic activity was assessed by measuring the loss of viable target cells over a period of four days, as determined by red fluorescent signal (using the IncuCyte® Live Cell Analysis System, Essen Bioscience).

Test [2] deals with anti-CD19 CAR T cells. The test is described as follows: Expression of CAR-T cell surface markers over 4 days after stimulation with irradiated K562-CD19 (flow cytometry). Format: cell-based, human. Particulars: four days after initial stimulation.
Source text: as §1, §2
CAR-T cells generated as described above were plated at 100,000 cells/well on 96 well Poly-D-Lysine coated plates. Irradiated K562-CD19 target cells were added at an effector to target ratio of 2.5:1.
(Flow cytometry measures light scatter and fluorescence of single cells or particles in a stream.)

The next test relates to CAR T cells. The test is described as follows: Activation and memory markers of CAR T cells from the serial stimulation assay (flow cytometry). Type of test: cell-based, human. Particulars: days 0, 11, 18 and 21 of serial stimulation.
Test [3] concerns EGFRt+ CAR T cells and/or tumor cells. Nature of the test: CAR+ T cell and tumor cell counts in blood and bone marrow of Nalm-6 bearing mice. Type of test: in vivo, NSG mice. As for the experimental part:
(§3) NSG mice described in Example 2 were intravenously injected on day 0 with 5×10^5 Nalm-6 cells expressing firefly luciferase. […] A bridging experiment confirmed that administration of ibrutinib by drinking water was equivalent to oral gavage administration (data not shown). To permit assessment of the effect of a combination therapy with the inhibitor, a suboptimal dose of anti-CD19 CAR T cells was i.v. injected into the mice at 5×10^5/mouse at day 5. As a control, mice were administered the vehicle control without administration of the CAR-T cells or inhibitor.

In test [4] the test system is CAR+ T cells harvested from bone marrow. Nature of the test: Ex vivo immunophenotyping (t-SNE) of CAR+ T cells harvested from bone marrow. Format: in vivo, NSG mice. The following applies: day 12 post CAR T transfer. As for the experimental part:
as §3
Cells were assessed for surface markers CD44, CD45RA, CD62L, CD154, CXCR3, CXCR4, PD-1 by flow cytometry and T-distributed stochastic neighbor embedding (t-SNE) high dimensional analysis was performed using FlowJo software. […] Using multivariate t-SNE FACS analysis based on pooled analysis from three mice per group, 4 distinct population clusters were identified (FIG. 8B). FACs histograms showing the individual expression profiles of CD4, CD8, CD62L, CD45RA, CD44 and CXCR3 from the 4 gated t-SNE in FIG. 8A overlaid on the expression of the total population (shaded) is shown in FIG. 8C. […] Statistically significant differences are indicated as […] (*), P<0.01 (**), P<0.001 (***), P<0.0001 (****).

For the molecule `CC#CC(=O)N1CCC[C@H]1c1nc(-c2ccc(C(=O)Nc3ccccn3)cc2)c2c(N)nccn12` [compound of Formula (II)], the “cytolytic function of anti-CD19 CAR T cells against K562-CD19 target cells, normalized to untreated control” value in the test with anti-CD19 CAR T cells [1] is reported as “no negative impact on cytolytic function”. In addition, in the test with anti-CD19 CAR T cells [2], the “phenotype of cells as central (TCM) or effector (TEM) memory subsets by CCR7 and CD45RA” value is given as “did not affect the phenotype of cells as central (TCM) or effector (TEM) memory subsets”. In addition, the “additional CAR T activation or memory markers (CD25, CD38, CD39, CD45RO, CD62L, CD69, CD107a, PD-1)” value with CAR T cells is “No significant effects”. Further, the “tumor cells in the blood or bone marrow compared to CAR+ cells with vehicle alone” value in test [3] (CAR+ cell treatment combined with inhibitor) is reported as “significantly fewer tumor cells were detected”. Further, the “circulating CAR+ T cells compared to CAR+ T cells and vehicle” value in test [3] (blood, days 7, 12, 19 and 26 post CAR+ T cell transfer, drinking water 25 mg/kg/day) is “significant increase in circulating CAR+ T cells”. In addition, the “number of cells in the blood” value in test [3] (day 19 post CAR-T cell transfer, ibrutinib p<0.05, Formula (II) p<0.001) is reported as “significant increase in the number of cells in the blood”. Moreover, the “population 2 (CD8+CD44hiCXCR3hiCD45RAloCD62Lhi) and population 4 (CD4+CD44hiCXCR3intCD45RAhiCD62Lhi) compared to control mice” value in test [4] was “An increase”. For the same molecule, in test [4] (pooled from three mice), the “population 2 as share of CAR-T cells” value is recorded as 29.2% and the “population 4 as share of CAR-T cells” value was 8.4%.
